Assay results published in ChEMBL document CHEMBL4823311, “Optimization of Naphthyridones into Selective TATA-Binding Protein Associated Factor 1 (TAF1) Bromodomain Inhibitors” (ACS Med Chem Lett, 2021).

Target: T1, ATPase family AAA domain-containing protein 2 (Homo sapiens) (UniProt Q6PL18)
T1 sequence (whole entry): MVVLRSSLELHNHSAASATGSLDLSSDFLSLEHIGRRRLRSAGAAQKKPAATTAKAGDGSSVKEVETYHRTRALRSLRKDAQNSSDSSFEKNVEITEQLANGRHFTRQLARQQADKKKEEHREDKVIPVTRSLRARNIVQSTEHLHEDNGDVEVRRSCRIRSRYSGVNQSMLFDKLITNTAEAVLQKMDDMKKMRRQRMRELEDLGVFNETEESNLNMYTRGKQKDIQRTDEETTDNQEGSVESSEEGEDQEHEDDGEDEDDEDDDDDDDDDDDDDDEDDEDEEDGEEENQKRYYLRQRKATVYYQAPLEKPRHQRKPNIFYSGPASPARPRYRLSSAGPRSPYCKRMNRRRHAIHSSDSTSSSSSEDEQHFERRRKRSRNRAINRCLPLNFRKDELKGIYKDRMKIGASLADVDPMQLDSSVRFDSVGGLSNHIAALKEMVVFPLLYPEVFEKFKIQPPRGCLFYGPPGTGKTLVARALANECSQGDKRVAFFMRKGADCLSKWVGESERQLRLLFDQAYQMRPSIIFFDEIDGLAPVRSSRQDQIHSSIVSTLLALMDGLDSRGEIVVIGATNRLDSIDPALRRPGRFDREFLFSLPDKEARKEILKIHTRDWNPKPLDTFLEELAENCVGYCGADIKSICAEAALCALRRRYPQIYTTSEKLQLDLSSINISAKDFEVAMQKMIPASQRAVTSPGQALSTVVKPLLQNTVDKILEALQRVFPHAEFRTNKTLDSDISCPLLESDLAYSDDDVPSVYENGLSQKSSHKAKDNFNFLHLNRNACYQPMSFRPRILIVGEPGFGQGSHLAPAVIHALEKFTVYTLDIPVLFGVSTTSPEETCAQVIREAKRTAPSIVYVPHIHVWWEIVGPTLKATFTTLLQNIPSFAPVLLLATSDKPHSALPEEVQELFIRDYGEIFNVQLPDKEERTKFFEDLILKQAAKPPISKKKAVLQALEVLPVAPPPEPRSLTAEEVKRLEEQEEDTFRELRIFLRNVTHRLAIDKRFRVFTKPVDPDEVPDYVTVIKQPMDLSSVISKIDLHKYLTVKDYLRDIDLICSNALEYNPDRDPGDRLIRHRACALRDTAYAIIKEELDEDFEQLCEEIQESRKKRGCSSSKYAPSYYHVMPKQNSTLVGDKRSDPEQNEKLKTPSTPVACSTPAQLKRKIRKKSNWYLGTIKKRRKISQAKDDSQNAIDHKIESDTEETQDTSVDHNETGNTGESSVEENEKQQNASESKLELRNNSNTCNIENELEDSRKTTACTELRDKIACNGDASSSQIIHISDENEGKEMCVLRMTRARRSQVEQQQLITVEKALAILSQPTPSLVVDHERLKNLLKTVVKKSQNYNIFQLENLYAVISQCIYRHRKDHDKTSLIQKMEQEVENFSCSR
Test: Inhibition of human partial length ATAD2 (Q981 to R1108 residues) expressed in bacterial expression system at 10 uM measured by BROMOscan assay

inhibition: 24%
Compound: Cc1cc2c(C3=CCOCC3)cnc(NC3CCN(C(=O)C(F)(F)CN)CC3)c2[nH]c1=O
